Target: T1, PDE8A(E) (Homo sapiens, UniProt O60658)
T1 construct: A 1.6 kb region of PDE8A(E) (the C-terminal 545 amino acids) was amplified and cloned into the baculovirus transfer vector pFASTBAC; made in house; host or cells: Sf9 insect cells (baculovirus, pFASTBAC)
Test: PDE activity assay, conversion of 3H-cAMP to 3H-adenosine by recombinant PDE8A(E)
Type: biochemical
Settings: for inhibition of PDE8A(E) activity: 1% DMSO, 50 nM cAMP, FIG. 8
Description: Recombinant virus stocks were prepared according to the manufacturer's protocol. Sf9 cells were cultured in Sf900 II Sfm serum free media (Invitrogen) at 27 C. For expression, 1×10^8 Sf9 cells were infected at a multiplicity of infection of 5 in a final volume of 50 mls. At three days post-infection, the cells were harvested, and enzyme-containing lysates were prepared as described below.
PDE8A(E) to be used for assay was prepared from transfected Sf9 cells. Cells were harvested by centrifugation, resuspended in homogenization buffer (20 mM Tris-HCl, 2 mM benzamidine, 1 mM EDTA, 0.25 M sucrose, 100 uM PMSF, pH 7.5) at 1×10^7 cells/ml, and disrupted with 3×10 second pulses using a Sonifier Processor (Emerson Branson, Korea). Cellular debris was removed by centrifugation at 14,000×g for 10 minutes. The supernatant was stored at −70° C.
PDE activity was assayed by measuring the conversion of ^3H-cAMP to ^3H-adenosine in the presence of PDE8A(E) and 5′ nucleotidase. […] The reaction was started by the addition of 25 ul of diluted enzyme supernatant. Reactions were run directly in mini Poly-Q scintillation vials (BeckmanCoulter, Fullerton Calif.). […] The reaction was stopped by the addition of 1 ml of Dowex AG1×8 (C1 form) resin (1:3 slurry). Three ml of scintillation fluid were added, the contents of the vials were mixed, and the resin in the vials was allowed to settle for 1 hr before counting. Soluble radioactivity associated with ^3H-adenosine was quantitated using a Beta scintillation counter. The amount of radioactivity recovered is proportional to the activity of PDE8 in the reaction. For inhibitor studies (FIG. 8), all reactions contained 1% DMSO, 50 nM cAMP, and the indicated inhibitor concentrations. The control vial contained all reagents minus the enzyme aliquot.

T1 sequence (O60658 285-829 limits assumed): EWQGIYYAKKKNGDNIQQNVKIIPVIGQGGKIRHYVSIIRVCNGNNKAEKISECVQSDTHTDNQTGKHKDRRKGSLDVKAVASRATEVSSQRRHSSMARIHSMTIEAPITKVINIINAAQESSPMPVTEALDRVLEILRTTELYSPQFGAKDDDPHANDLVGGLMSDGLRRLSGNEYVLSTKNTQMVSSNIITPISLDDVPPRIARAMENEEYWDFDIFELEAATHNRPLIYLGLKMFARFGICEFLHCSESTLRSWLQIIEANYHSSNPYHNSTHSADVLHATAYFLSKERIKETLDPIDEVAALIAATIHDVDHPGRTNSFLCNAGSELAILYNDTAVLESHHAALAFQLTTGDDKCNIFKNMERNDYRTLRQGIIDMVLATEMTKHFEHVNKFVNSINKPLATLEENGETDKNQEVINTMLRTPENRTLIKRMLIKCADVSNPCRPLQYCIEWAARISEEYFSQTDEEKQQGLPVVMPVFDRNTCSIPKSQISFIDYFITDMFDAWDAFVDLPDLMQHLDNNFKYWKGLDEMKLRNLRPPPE

inhibition of PDE8A(E) activity | SMILES | IC50 [µM]
not inhibited | CCCOc1ccccc1-c1nc2nn[nH]c2c(=O)[nH]1 [zaprinast] | 
not inhibited | CC(C)Cn1c(=O)n(C)c(=O)c2[nH]cnc21 [IBMX] | 
not inhibited | COc1ccc(C2CNC(=O)C2)cc1OC1CCCC1 (stereo not drawn) [rolipram] | 

More lines, now with the values behind:

SMILES | inhibition of PDE8A(E) activity | IC50 [µM]
CCOC(=O)C1=C[C@]2(CC)CCCN3CCc4c(n1c1ccccc41)[C@@H]32 [vinpocetine] | not inhibited | 
CC(=O)Nc1ccc(-c2c[nH]c(=O)cn2)cc1 [SKF94120] | not inhibited | 
OCCN(CCO)c1nc(N2CCCCC2)c2nc(N(CCO)CCO)nc(N3CCCCC3)c2n1 [dipyridamole] |  | 9
